Experimental data taken from ChEMBL document CHEMBL1144896 (2003).

Columns and labels:
[1] = system: BJ; assay: hTERT-SEAP (Human telomerase reverse transcriptase-SEAP) activity in immortalized hTERT-BJI at 230.0 uM concentration and level of cell viability determined in MTT assay; assay type: functional
[2] = system: NCI-H1299; assay: hTERT-SEAP (Human telomerase reverse transcriptase-SEAP) activity in non-small cell lung cancer H1299 cell at 230.0 uM concentration and level of cell viability determined in MTT assay; assay type: functional
[3] = system: NCI-H1299; assay: Compound was tested for human telomerase reverse transcriptase-SEAP (hTERT-SEAP) activity in non-small cell lung cancer H1299 cell at 23 uM concentration; assay type: functional
[4] = system: BJ; assay: Compound was tested for human telomerase reverse transcriptase-SEAP (hTERT-SEAP) activity in immortalized hTERT-BJI at 23 uM concentration; assay type: functional
[5] = system: BJ; assay: hTERT-SEAP (Human telomerase reverse transcriptase-SEAP) activity in immortalized hTERT-BJI at 23 uM concentration and level of cell viability determined in MTT assay; assay type: functional
[6] = system: NCI-H1299; assay: (§1) hTERT-SEAP (Human telomerase reverse transcriptase-SEAP) activity in non-small cell lung cancer H1299 cell at 2.3 uM concentration and level of cell viability determined in MTT assay; assay type: functional
[7] = system: NCI-H1299; assay: (§2) Compound was tested for human telomerase reverse transcriptase-SEAP (hTERT-SEAP) activity in non-small cell lung cancer H1299 cell at 2.3 uM concentration; assay type: functional
[8] = system: BJ; assay: Compound was tested for human telomerase reverse transcriptase-SEAP (hTERT-SEAP) activity in immortalized hTERT-BJI at 230.0 uM concentration; assay type: functional
[9] = system: NCI-H1299; assay: as §1; assay type: functional; remark: listed apart in the source
[10] = system: NCI-H1299; assay: Compound was tested for human telomerase reverse transcriptase-SEAP (hTERT-SEAP) activity in non-small cell lung cancer H1299 cell at 230.0 uM concentration; assay type: functional
[11] = system: NCI-H1299; assay: as §2; assay type: functional; remark: listed apart in the source
[12] = system: NCI-H1299; assay: hTERT-SEAP (Human telomerase reverse transcriptase-SEAP) activity in non-small cell lung cancer H1299 cell at 23 uM concentration and level of cell viability determined in MTT assay; assay type: functional
[13] = system: BJ; assay: Compound was tested for cytomegalovirus or (pPCMV-SEAP) activity in immortalized hTERT-BJ1 at 2.2 uM concentration; assay type: functional, Homo sapiens
[14] = system: NCI-H1299; assay: Compound was tested for human telomerase reverse transcriptase-SEAP (hTERT-SEAP) activity in non-small cell lung cancer H1299 cell at 22 uM concentration; assay type: functional
[15] = system: BJ; assay: hTERT-SEAP (Human telomerase reverse transcriptase-SEAP) activity in immortalized hTERT-BJI at 22 uM concentration and level of cell viability determined in MTT assay; assay type: functional
[16] = system: BJ; assay: pPCMV-SEAP (cytomegalovirus-SEAP) activity in immortalized hTERT-BJ1 at 22 uM concentration and level of cell viability determined in MTT assay; assay type: functional, Homo sapiens
[17] = system: NCI-H1299; assay: hTERT-SEAP (Human telomerase reverse transcriptase-SEAP) activity in non-small cell lung cancer H1299 cell at 220.0 uM concentration and level of cell viability determined in MTT assay; assay type: functional
[18] = system: BJ; assay: pPCMV-SEAP (cytomegalovirus-SEAP) activity in immortalized hTERT-BJ1 at 2.2 uM concentration and level of cell viability determined in MTT assay; assay type: functional, Homo sapiens
[19] = system: BJ; assay: hTERT-SEAP (Human telomerase reverse transcriptase-SEAP) activity in immortalized hTERT-BJI at 220.0 uM concentration and level of cell viability determined in MTT assay; assay type: functional
[20] = system: NCI-H1299; assay: Compound was tested for human telomerase reverse transcriptase-SEAP (hTERT-SEAP) activity in non-small cell lung cancer H1299 cell at 220.0 uM concentration; assay type: functional
[21] = system: BJ; assay: Compound was tested for human telomerase reverse transcriptase-SEAP (hTERT-SEAP) activity in immortalized hTERT-BJI at 220.0 uM concentration; assay type: functional
[22] = system: BJ; assay: Compound was tested for cytomegalovirus or (pPCMV-SEAP) activity in immortalized hTERT-BJ1 at 22 uM concentration; assay type: functional, Homo sapiens
[23] = system: BJ; assay: Compound was tested for human telomerase reverse transcriptase-SEAP (hTERT-SEAP) activity in immortalized hTERT-BJI at 22 uM concentration; assay type: functional
[24] = system: NCI-H1299; assay: Compound was tested for human telomerase reverse transcriptase-SEAP (hTERT-SEAP) activity in non-small cell lung cancer H1299 cell at 2.2 uM concentration; assay type: functional
[25] = system: BJ; assay: hTERT-SEAP (Human telomerase reverse transcriptase-SEAP) activity in immortalized hTERT-BJI at 2.2 uM concentration and level of cell viability determined in MTT assay; assay type: functional
[26] = system: NCI-H1299; assay: hTERT-SEAP (Human telomerase reverse transcriptase-SEAP) activity in non-small cell lung cancer H1299 cell at 22 uM concentration and level of cell viability determined in MTT assay; assay type: functional
[27] = system: BJ; assay: Compound was tested for human telomerase reverse transcriptase-SEAP (hTERT-SEAP) activity in immortalized hTERT-BJI at 2.2 uM concentration; assay type: functional
[28] = system: BJ; assay: Compound was tested for cytomegalovirus or (pPCMV-SEAP) activity in immortalized hTERT-BJ1 at 220 uM concentration; assay type: functional, Homo sapiens
[29] = system: NCI-H1299; assay: hTERT-SEAP (Human telomerase reverse transcriptase-SEAP) activity in non-small cell lung cancer H1299 cell at 2.2 uM concentration and level of cell viability determined in MTT assay; assay type: functional
[30] = system: BJ; assay: pPCMV-SEAP (cytomegalovirus-SEAP) activity in immortalized hTERT-BJ1 at 220 uM concentration and level of cell viability determined in MTT assay; assay type: functional, Homo sapiens
[31] = system: NCI-H1299; assay: hTERT-SEAP (Human telomerase reverse transcriptase-SEAP) activity in non-small cell lung cancer H1299 cell at 280.0 uM concentration and level of cell viability determined in MTT assay; assay type: functional
[32] = system: BJ; assay: Compound was tested for human telomerase reverse transcriptase-SEAP (hTERT-SEAP) activity in immortalized hTERT-BJI at 28.0 uM concentration; assay type: functional
[33] = system: NCI-H1299; assay: Compound was tested for human telomerase reverse transcriptase-SEAP (hTERT-SEAP) activity in non-small cell lung cancer H1299 cell at 280.0 uM concentration; assay type: functional
[34] = system: NCI-H1299; assay: hTERT-SEAP (Human telomerase reverse transcriptase-SEAP) activity in non-small cell lung cancer H1299 cell at 28 uM concentration and level of cell viability determined in MTT assay; assay type: functional
[35] = system: BJ; assay: Compound was tested for human telomerase reverse transcriptase-SEAP (hTERT-SEAP) activity in immortalized hTERT-BJI at 280.0 uM concentration; assay type: functional
[36] = system: NCI-H1299; assay: Compound was tested for human telomerase reverse transcriptase-SEAP (hTERT-SEAP) activity in non-small cell lung cancer H1299 cell at 2.8 uM concentration; assay type: functional
[37] = system: BJ; assay: hTERT-SEAP (Human telomerase reverse transcriptase-SEAP) activity in immortalized hTERT-BJI at 28.0 uM concentration and level of cell viability determined in MTT assay; assay type: functional
[38] = system: NCI-H1299; assay: hTERT-SEAP (Human telomerase reverse transcriptase-SEAP) activity in non-small cell lung cancer H1299 cell at 2.8 uM concentration and level of cell viability determined in MTT assay; assay type: functional
[39] = system: BJ; assay: hTERT-SEAP (Human telomerase reverse transcriptase-SEAP) activity in immortalized hTERT-BJI at 2.8 uM concentration and level of cell viability determined in MTT assay; assay type: functional
[40] = system: BJ; assay: hTERT-SEAP (Human telomerase reverse transcriptase-SEAP) activity in immortalized hTERT-BJI at 280.0 uM concentration and level of cell viability determined in MTT assay; assay type: functional
[41] = system: NCI-H1299; assay: Compound was tested for human telomerase reverse transcriptase-SEAP (hTERT-SEAP) activity in non-small cell lung cancer H1299 cell at 28.0 uM concentration; assay type: functional
[42] = system: BJ; assay: Compound was tested for human telomerase reverse transcriptase-SEAP (hTERT-SEAP) activity in immortalized hTERT-BJI at 2.8 uM concentration; assay type: functional
[43] = system: BJ; assay: Compound was tested for human telomerase reverse transcriptase-SEAP (hTERT-SEAP) activity in immortalized hTERT-BJI at 190.0 uM concentration; assay type: functional
[44] = system: BJ; assay: Compound was tested for human telomerase reverse transcriptase-SEAP (hTERT-SEAP) activity in immortalized hTERT-BJI at 19 uM concentration; assay type: functional
[45] = system: NCI-H1299; assay: Compound was tested for human telomerase reverse transcriptase-SEAP (hTERT-SEAP) activity in non-small cell lung cancer H1299 cell at 1.9 uM concentration; assay type: functional
[46] = system: NCI-H1299; assay: Compound was tested for human telomerase reverse transcriptase-SEAP (hTERT-SEAP) activity in non-small cell lung cancer H1299 cell at 19 uM concentration; assay type: functional
[47] = system: NCI-H1299; assay: hTERT-SEAP (Human telomerase reverse transcriptase-SEAP) activity in non-small cell lung cancer H1299 cell at 19 uM concentration and level of cell viability determined in MTT assay; assay type: functional
[48] = system: BJ; assay: hTERT-SEAP (Human telomerase reverse transcriptase-SEAP) activity in immortalized hTERT-BJI at 19 uM concentration and level of cell viability determined in MTT assay; assay type: functional
[49] = system: BJ; assay: hTERT-SEAP (Human telomerase reverse transcriptase-SEAP) activity in immortalized hTERT-BJI at 190.0 uM concentration and level of cell viability determined in MTT assay; assay type: functional
[50] = system: NCI-H1299; assay: hTERT-SEAP (Human telomerase reverse transcriptase-SEAP) activity in non-small cell lung cancer H1299 cell at 1.9 uM concentration and level of cell viability determined in MTT assay; assay type: functional
[51] = system: NCI-H1299; assay: hTERT-SEAP (Human telomerase reverse transcriptase-SEAP) activity in non-small cell lung cancer H1299 cell at 190.0 uM concentration and level of cell viability determined in MTT assay; assay type: functional
[52] = system: NCI-H1299; assay: Compound was tested for human telomerase reverse transcriptase-SEAP (hTERT-SEAP) activity in non-small cell lung cancer H1299 cell at 190.0 uM concentration; assay type: functional

## O=C1c2cccc(Sc3ccncc3)c2C(=O)c2cccc(Sc3ccncc3)c21
[1]
  Relative viability: 55%
[2]
  Relative viability: 29%
[3]
  Relative SEAP activity: 103%
[4]
  Relative SEAP activity: 133%
[5]
  Relative viability: 91%
[6]
  Relative viability: 79%
[7]
  Relative SEAP activity: 98%
[8]
  Relative SEAP activity: 121%
[9]
  Relative viability: 112%
[10]
  Relative SEAP activity: 89%
[11]
  Relative SEAP activity: 104%
[12]
  Relative viability: 45%

## O=C1c2cccc(Sc3nccc(O)n3)c2C(=O)c2cccc(Sc3nccc(O)n3)c21
[13]
  Relative SEAP activity: 112%
[14]
  Relative SEAP activity: 97%
[15]
  Relative viability: 106%
[16]
  Relative viability: 118%
[17]
  Relative viability: 51%
[18]
  Relative viability: 107%
[19]
  Relative viability: 89%
[20]
  Relative SEAP activity: 93%
[21]
  Relative SEAP activity: 145%
[22]
  Relative SEAP activity: 105%
[23]
  Relative SEAP activity: 116%
[24]
  Relative SEAP activity: 92%
[25]
  Relative viability: 104%
[26]
  Relative viability: 95%
[27]
  Relative SEAP activity: 93%
[28]
  Relative SEAP activity: 120%
[29]
  Relative viability: 99%
[30]
  Relative viability: 78%

## CCCSc1cccc2c1C(=O)c1cccc(SCCC)c1C2=O
[31]
  Relative viability: 25%
[32]
  Relative SEAP activity: 110%
[33]
  Relative SEAP activity: 17%
[34]
  Relative viability: 44%
[35]
  Relative SEAP activity: 122%
[36]
  Relative SEAP activity: 73%
[37]
  Relative viability: 97%
[38]
  Relative viability: 96%
[39]
  Relative viability: 103%
[40]
  Relative viability: 39%
[41]
  Relative SEAP activity: 29%
[42]
  Relative SEAP activity: 132%

## O=C(Oc1cccc2c1C(=O)c1cccc(OC(=O)c3cccc(Cl)c3)c1C2=O)c1cccc(Cl)c1
[43]
  Relative SEAP activity: 91%
[44]
  Relative SEAP activity: 152%
[45]
  Relative SEAP activity: 83%
[46]
  Relative SEAP activity: 92%
[47]
  Relative viability: 88%
[48]
  Relative viability: 80%
[49]
  Relative viability: 44%
[50]
  Relative viability: 98%
[51]
  Relative viability: 46%
[52]
  Relative SEAP activity: 81%
